Values quoted from earlier work as cited in US20090252711A1, “Stem Cells And Methods Of Making And Using Stem Cells” (priority 2006, published 2009).

How the values were obtained:
cultured ASCs = settings: Cho et al. 2005
hTERT = settings: normal human cells; Hou et al.
lung fibroblast cells = settings: Mukhopadhyay et al. 2005
neural stem cells = settings: Marin-Husstege et al. 2002

SMILES | differentiation towards the osteogenic (bone) lineage (cultured ASCs) | expression of the gene hTERT (hTERT) | telomerase activity (lung fibroblast cells) | differentiation of neural stem cells towards the astrocyte cell type (neural stem cells) | differentiation of neural stem cells towards the oligodendrocyte cell type (neural stem cells)
CCCC(CCC)C(=O)O [Valproic acid] | enhanced differentiation | – | – | – | –
CC(/C=C/C(=O)NO)=C\[C@@H](C)C(=O)c1ccc(N(C)C)cc1 [trichostatin A] | enhanced differentiation | upregulation | induced | not towards the astrocyte cell type | blocked
